Laboratory results taken from US6608082B1, “Treatment of erectile dysfunction using isoquinoline compound melanocortin receptor ligands” (Lion Bioscience AG, priority 1998, dated 2003).
Read-outs that look alike come from different tables or passages of the source.

What was measured:
MCR-1 = target: T1, MCR-1 (Homo sapiens, UniProt Q01726); experiment: Melanocortin receptor binding assay, competition with 125I-HP 467, HEK 293 cells expressing hMCR-1; conditions: for IC50: read-out: MC-1 IC50; for % Disp. MC-1 10 μM: displacement of 125I-HP 467 at 10 μM isoquinoline compound; for % Disp. of 125I-HP 467 (first of duplicate) / % Disp. of 125I-HP 467 (second of duplicate): 10 μM isoquinoline compound; for % Disp. of 125I-HP 467 (first of duplicate): HEK 293 cells expressing MCR-1, duplicate 1; for % Disp. of 125I-HP 467 (second of duplicate): HEK 293 cells expressing MCR-1, duplicate 2; for effectiveness as MC receptor ligand: binding to MC receptors, Table 1; for specificity for at least one MC receptor over another MC receptor: MCR-1 versus MCR-4 binding
T1 construct: expressed in transfected cells; host or cells: HEK 293
T1 sequence (Q01726 whole entry): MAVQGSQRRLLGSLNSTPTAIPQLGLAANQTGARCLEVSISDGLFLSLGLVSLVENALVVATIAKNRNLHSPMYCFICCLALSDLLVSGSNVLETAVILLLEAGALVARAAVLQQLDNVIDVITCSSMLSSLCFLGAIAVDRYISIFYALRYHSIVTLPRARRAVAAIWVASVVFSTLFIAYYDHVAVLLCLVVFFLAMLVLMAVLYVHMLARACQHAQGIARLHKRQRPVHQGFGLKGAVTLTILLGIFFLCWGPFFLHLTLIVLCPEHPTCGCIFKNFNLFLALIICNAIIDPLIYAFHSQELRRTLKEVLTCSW
Outline: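 Test compounds compete on intact HEK 293 cells carrying hMCR-1 (2×10^4 per tube) or hMCR-4 (4×10^3 per tube), suspended in PBS, 10% calf serum, 1 mM CaCl2.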

TNF-α = experiment: Reduction of lipopolysaccharide-induced tumor necrosis factor levels in mice; format: in vivo, BALB/c female mice; conditions: for % TNF-α Inhibtion, IP 30: 30 μg per mouse; for % TNF-α Inhibtion, IP 30 / % TNF-α Inhibtion, IP 100 / % TNF-α Inhibtion, IP 300 / % TNF-α Inhibtion, Oral 600 / % TNF-α Inhibtion, Oral 300: plasma 90 or 105 minutes after LPS, mean ± SEM; for % TNF-α Inhibtion, IP 100: 100 μg per mouse; for % TNF-α Inhibtion, IP 300 / % TNF-α Inhibtion, Oral 300: 300 μg per mouse; for % TNF-α Inhibtion, Oral 600: 600 μg per mouse
Experimental: BALB/c female mice weighing approximately 20 g were placed into a control group and a treated group. Five mg/kg of LPS in 0.9% saline was administered (100 μl to give 100 μg LPS per mouse) by intraperitoneal (IP) injection to all mice. Mice in the treatment group received either 30, 100, 300 or 600 μg of various isoquinoline compounds per mouse in a volume of 100 μl of PBS. Control mice received 100 μl of saline alone. One minute after initial injections all mice received the LPS injection. As a positive control, 100 μg of HP 228 was injected per mouse.
Blood samples were collected from the orbital sinus of treated and control mice 90 minutes or 105 minutes after LPS administration. The plasma was separated by centrifugation at 3000×g for 5 min and stored at −20° C. Samples were thawed and diluted, if TNF-α concentration was greater than 3200 pg/ml, with PBS containing 1% bovine serum albumin, 10% donor horse serum, 1% normal mouse serum, 0.05% TWEEN-20 and 0.05% thimerosal. A 100 μl sample of plasma was assayed by ELISA for TNF-α. Briefly, ELISA plates were coated with hamster anti-mouse TNF-α antibody (Genzyme; Cambridge Mass.). Samples or known concentrations of TNF-α were added to the coated plates and incubated for 2 hr at 37° C. Plates were washed and subsequently incubated with biotinylated rabbit anti-mouse TNG-α for 1 hr at 37° C. Plates were washed and incubated with streptavidin-HRP for 1 hr at 37° C., and HRP activity was detected with hydrogen peroxide and o-phenylenediamine (OPD) using standard immunoassay procedures.
The mean (±SEM) TNF-α level in five mice from each group was determined and the percent reduction in TNF-α levels was calculated.

IL-10 = experiment: Increasing levels of IL-10 in mice (plasma ELISA); format: in vivo; conditions: for % IL-10 Induction, IP 30: 30 μg per mouse; for % IL-10 Induction, IP 30 / % IL-10 Induction, IP 100 / % IL-10 Induction, IP 300 / % IL-10 Induction, Oral 600 / % IL-10 Induction, Oral 300: mouse plasma, 90 or 105 minutes; for % IL-10 Induction, IP 100: 100 μg per mouse; for % IL-10 Induction, IP 300 / % IL-10 Induction, Oral 300: 300 μg per mouse; for % IL-10 Induction, Oral 600: 600 μg per mouse
Experimental: Isoquinoline compounds were administered intraperitoneally to mice in doses of 30, 100 or 300 μg/mouse or orally in doses of 300 or 600 μg/mouse. Levels of IL-10 were measured 90 or 105 minutes after administration as indicated. Samples were collected and diluted, when appropriate, as described in Example VI. A 100 μl sample of plasma was assayed by ELISA for IL-10. Briefly, ELISA plates were coated with rat anti-mouse IL-10 monoclonal antibody (Pharmingen; San Diego Calif.). Samples or known concentrations of IL-10 were added to the coated plates and incubated for 2 hr at 37° C. Plates were washed and incubated with biotinylated rat anti-mouse IL-10 (R&D Systems; Minneapolis Minn.) for 1 hr at 37° C. Plates were washed and incubated with streptavidin-HRP 30 min at 37° C., and HRP activity was detected with hydrogen peroxide and TMB using standard immunoassay procedures.

| SMILES | % TNF-α Inhibtion, IP 30 (TNF-α) | % TNF-α Inhibtion, IP 100 (TNF-α) | % TNF-α Inhibtion, IP 300 (TNF-α) | % IL-10 Induction, IP 30 (IL-10) | % IL-10 Induction, IP 100 (IL-10) | % IL-10 Induction, IP 300 (IL-10) | % Disp. of 125I-HP 467 (first of duplicate) (MCR-1) | % Disp. of 125I-HP 467 (second of duplicate) (MCR-1) | effectiveness as MC receptor ligand (MCR-1) | decrease of TNF-α levels (TNF-α; LPS treated mice) | increase of IL-10 (IL-10; plasma levels in mice) | % TNF-α Inhibtion, Oral 600 (TNF-α) | % IL-10 Induction, Oral 600 (IL-10) | specificity for at least one MC receptor over another MC receptor (MCR-1) | further results |
| --- | --- | --- | --- | --- | --- | --- | --- | --- | --- | --- | --- | --- | --- | --- | --- |
| CNC(CN)CN1Cc2ccccc2C(CNC2CCCCC2)C1c1ccc(O)cc1 (stereo not drawn) [TRG 2405-156] | 30 ± 13% | 12 ± 7% | 48 ± 16% | 17 ± 23% | −5 ± 11% | 43 ± 34% |  |  |  |  |  |  |  |  | IC50 (MCR-1; TRG 2405 section, inhibition of binding of 125I-HP 467, HEK 293 cells expressing MCR-1): 17000 nM; % Disp. MC-1 10 μM (MCR-1; first of duplicate): 25.9%; % Disp. MC-1 10 μM (MCR-1; second of duplicate): 21.3% |
| CNC(CN)CCCCN1Cc2ccccc2C(CNC2CCCCC2)C1c1ccc(Cl)cc1Cl (stereo not drawn) [TRG 2405-190] | 70 ± 11 % | −6 ± 7% | 83 ± 11 % | 25 ± 30% | 13 ± 14% | 109 ± 31 % | 79.4% | 81% | particularly effective MC receptor ligands | particularly effective at decreasing TNF-α | particularly effective at increasing IL-10 |  |  |  |  |
| CNC(CN)CCCCN1Cc2ccccc2C(CNC2CCCCC2)C1c1ccc(N(C)C)cc1 (stereo not drawn) [TRG 2405-235] | 8 ± 7% | 39 ± 7% | 50 ± 9% | −11 ± 13% | 45 ± 18% | 113 ± 15 % | 64.2% | 26.3% |  |  |  |  |  |  |  |
| CNC(CN)CCCCN1Cc2ccccc2C(CNC2CCCCC2)C1c1ccc(C(F)(F)F)cc1 (stereo not drawn) [TRG 2405-238] | 19 ± 7% | 73 ± 1 % | 84 ± 18 % | −17 ± 7% | 151 ± 26 % | 118 ± 25 % | 76.8% | 72.8% |  |  |  | 6 ± 28% | 65 ± 15 % |  |  |
| CCNc1ccc(C2C(CNC3CCCCC3)c3ccccc3CN2CCCCC(CN)NC)cc1 (stereo not drawn) [TRG 2405-239] | 13 ± 8% | 10 ± 6% | 66 ± 9 % | 44 ± 35% | −29 ± 6% | 197 ± 34 % | 86.6% | 85.2% | particularly effective MC receptor ligands |  |  | 9 ± 14% | 46 ± 14% |  |  |
| CNC(CN)CCCCN1Cc2ccccc2C(CNC2CCCCC2)C1c1ccc(-c2ccccc2)cc1 (stereo not drawn) [TRG 2405-241] | 26 ± 15% | 75 ± 3 % | 45 ± 9% | 117 ± 21% | 310 ± 35 % | 406 ± 46 % | 89.5% | 88.8% | particularly effective MC receptor ligands | particularly effective at decreasing TNF-α | particularly effective at increasing IL-10 | 74 ± 8 % | 77 ± 37 % | about 10 fold | % TNF-α Inhibtion, Oral 300 (TNF-α): 38 ± 9 %; % IL-10 Induction, Oral 300 (IL-10): 9 ± 23% |
| CNC(CN)CCCCN1Cc2ccccc2C(CNC2CCCCC2)C1c1ccc(Br)cc1 (stereo not drawn) [TRG 2405-242] | 21 ± 8% | 60 ± 4 % | 68 ± 5 % |  | −9 ± 7% |  | 86% | 83.4% |  |  |  |  |  |  |  |
| CNC(CN)CCCCN1Cc2ccccc2C(CNC2CCCCC2)C1c1ccc(O)cc1 (stereo not drawn) [TRG 2405-246] | 27 ± 9% |  | 80 ± 3 % |  |  |  | 26.5% | 20.7% |  |  |  | −29 ± 31 % | 30 ± 5 % |  |  |
| CNC(CN)CCCCN1Cc2ccccc2C(CNC2CCCCC2)C1c1ccc(Oc2ccccc2)cc1 (stereo not drawn) [TRG 2405-252] | 49 ± 14 % |  | 90 ± 2 % | 2 ± 13% |  | 307 ± 43 % | 95.1% | 95.5% | particularly effective MC receptor ligands | particularly effective at decreasing TNF-α | particularly effective at increasing IL-10 | 55 ± 13 % | 69 ± 19 % | about 10 fold |  |
| CCCOc1ccc(C2C(CNC3CCCCC3)c3ccccc3CN2CCCCC(CN)NC)cc1 (stereo not drawn) [TRG 2405-253] | 46 ± 8% |  | 80 ± 7% | 7 ± 21% |  | 325 ± 73 % | 93.9% | 92.2% | particularly effective MC receptor ligands | particularly effective at decreasing TNF-α | particularly effective at increasing IL-10 |  |  | about 10 fold |  |
| CNC(CN)CCCCN1Cc2ccccc2C(CNC2CCCCC2)C1c1ccc2cccc(O)c2n1 (stereo not drawn) [TRG 2405-262] |  |  | 83 ± 3 % |  |  | 191 ± 53 % | 66.1% | 66.8% |  |  |  |  |  |  |  |
| CNC(CN)CCCCN1Cc2ccccc2C(CN)C1c1ccc(Cl)cc1Cl (stereo not drawn) [TRG 2407-39] | 24 ± 17% |  | 72 ± 5 % | 34 ± 13% |  | 366 ± 12 % |  |  |  |  |  |  |  |  | IC50 (MCR-1; TRG 2406 and TRG 2407 libraries, inhibition of binding of 125I-HP 467): 910 nM |
| CCNc1ccc(C2C(CNC3CCCCC3)c3ccccc3CN2CCCCC(CN)NC)cc1 (stereo not drawn) [TRG 2408-30] | 30 ± 14% |  | 78 ± 3 % | −20 ± 14% |  | 24 ± 12% |  |  | particularly effective MC receptor ligands | particularly effective at decreasing TNF-α | particularly effective at increasing IL-10 | 74 ± 4 % | 136 ± 41 % | about 10 fold | IC50 (MCR-1; TRG 2408 and TRG 2409 libraries, inhibition of 125I-HP 467 binding): 1170 nM; inhibiting TNF-α (TNF-α; LPS treated mice, both i.p. and oral administration): particularly effective at inhibiting TNF-α; % TNF-α Inhibtion, Oral 300 (TNF-α): 42 ± 14 %; % IL-10 Induction, Oral 300 (IL-10): 33 ± 18%; increase of IL-10 (IL-10; administered orally): particularly effective at increasing IL-10 |
